From ChEMBL document CHEMBL6127100, “Plant based steroidal and triterpenoid sapogenins: Chemistry on diosgenin and biological aspects” (Eur J Med Chem, 2024)

Key:
Format in all cases: functional, cell-based
HepG2 = assay: Cytotoxicity against human HepG2 cells assessed as reduction in cell viability incubated for 24 hrs by MTT assay; conditions: HepG2, 24 h
SH-SY5Y = assay: Cytotoxicity against human SH-SY5Y cells assessed as reduction in cell viability incubated for 24 hrs by MTT assay
HeLa = assay: Cytotoxicity against human HeLa cells assessed as reduction in cell growth incubated for 48 hrs by MTT assay
MDA-MB-231 = assay: Cytotoxicity against human MDA-MB-231 cells assessed as reduction in cell growth incubated for 48 hrs by MTT assay; conditions: MDA-MB-231, 48 h
KB = assay: Cytotoxicity against human KB cells assessed as reduction in cell growth incubated for 3 days by micro-titer plate reader analysis; conditions: 72 h
HuCC-A1 = assay: Cytotoxicity against human HuCC-A1 cells assessed as reduction in cell growth incubated for 3 days by micro-titer plate reader analysis; conditions: HuCC-A1, 72 h

C[C@@H]1CC[C@@]2(OC1)O[C@H]1C[C@H]3[C@@H]4CC=C5C[C@@H](O[C@@H]6O[C@H](CO)[C@@H](O[C@@H]7O[C@@H](CO)[C@H](O)[C@H]7O)[C@H](O)[C@H]6O[C@@H]6O[C@@H](C)[C@H](O)[C@@H](O)[C@H]6O)CC[C@]5(C)[C@H]4CC[C@]3(C)[C@H]1[C@@H]2C
IC50 (HepG2): 12.2 µM

C[C@@H]1CC[C@@]2(OC1)O[C@H]1C[C@H]3[C@@H]4CC=C5C[C@@H](OC(=O)[C@@H]6CCCN6)CC[C@]5(C)[C@H]4CC[C@]3(C)[C@H]1[C@@H]2C
IC50 (SH-SY5Y): 7.2 µM

C[C@@H]1CC[C@@]2(OC1)O[C@H]1C[C@H]3[C@@H]4CC=C5C[C@@H](OC(=O)[C@@H](N)Cc6ccccc6)CC[C@]5(C)[C@H]4CC[C@]3(C)[C@H]1[C@@H]2C
IC50 (SH-SY5Y): 11.2 µM

C[C@@H]1CC[C@@]2(OC1)O[C@H]1C[C@H]3[C@@H]4CC=C5C[C@@H](O[C@@H]6O[C@H](CO)[C@@H](O[C@@H]7O[C@@H](C)[C@H](O[C@@H]8O[C@@H](C)[C@H](O[C@@H]9O[C@@H](C)[C@H](O[C@@H]%10O[C@@H](C)[C@H](O)[C@@H](O)[C@H]%10O)[C@@H](O)[C@H]9O)[C@@H](O)[C@H]8O)[C@@H](O)[C@H]7O)[C@H](O)[C@H]6O[C@@H]6O[C@@H](C)[C@H](O)[C@@H](O)[C@H]6O)CC[C@]5(C)[C@H]4CC[C@]3(C)[C@H]1[C@@H]2C
IC50 (HepG2): 13.4 µM

CC(C)C[C@H](NC(=O)OC(C)(C)C)C(=O)O[C@H]1CC[C@@]2(C)C(=CC[C@H]3[C@@H]4C[C@@H]5O[C@]6(CC[C@@H](C)CO6)[C@@H](C)[C@@H]5[C@@]4(C)CC[C@@H]32)C1
IC50 (SH-SY5Y): 9.5 µM

C[C@@H]1CC[C@@]2(OC1)O[C@H]1C[C@H]3[C@@H]4CC=C5C[C@@H](O[C@@H]6O[C@H](CO)[C@@H](O[C@@H]7O[C@H](CO)[C@@H](O[C@@H]8O[C@@H](C)[C@H](O)[C@@H](O)[C@H]8O)[C@H](O)[C@H]7O)[C@H](O)[C@H]6O[C@@H]6O[C@@H](C)[C@H](O)[C@@H](O)[C@H]6O)CC[C@]5(C)[C@H]4CC[C@]3(C)[C@H]1[C@@H]2C
IC50 (HeLa): 0.7 µM | IC50 (MDA-MB-231): 0.9 µM | IC50 (KB): 0.9 µM | IC50 (HuCC-A1): 2.6 µM

CC[C@H](C)[C@H](NC(=O)OC(C)(C)C)C(=O)O[C@H]1CC[C@@]2(C)C(=CC[C@H]3[C@@H]4C[C@@H]5O[C@]6(CC[C@@H](C)CO6)[C@@H](C)[C@@H]5[C@@]4(C)CC[C@@H]32)C1
IC50 (SH-SY5Y): 18.5 µM

CCCC(N)C(=O)O[C@H]1CC[C@@]2(C)C(=CC[C@H]3[C@@H]4C[C@@H]5O[C@]6(CC[C@@H](C)CO6)[C@@H](C)[C@@H]5[C@@]4(C)CC[C@@H]32)C1 (stereo partly specified)
IC50 (SH-SY5Y): 6.9 µM

C[C@@H]1CC[C@@]2(OC1)O[C@H]1C[C@H]3[C@@H]4CC=C5C[C@@H](OC(=O)CN(C)C(=O)OC(C)(C)C)CC[C@]5(C)[C@H]4CC[C@]3(C)[C@H]1[C@@H]2C
IC50 (SH-SY5Y): 15.2 µM

C[C@@H]1CC[C@@]2(OC1)O[C@H]1C[C@H]3[C@@H]4CC=C5C[C@@H](O[C@@H]6O[C@H](CO)[C@@H](O[C@@H]7O[C@H](CO)[C@@H](O)[C@H](O)[C@H]7O)[C@H](O)[C@H]6O[C@@H]6O[C@@H](C)[C@H](O)[C@@H](O)[C@H]6O)CC[C@]5(C)[C@H]4CC[C@]3(C)[C@H]1[C@@H]2C [DELTONIN]
IC50 (HeLa): 0.9 µM | IC50 (MDA-MB-231): 1.1 µM | IC50 (KB): 1.2 µM | IC50 (HuCC-A1): 3.4 µM

C[C@@H]1CC[C@@]2(OC1)O[C@H]1C[C@H]3[C@@H]4CC=C5C[C@@H](O[C@@H]6O[C@H](CO)[C@@H](O)[C@H](O)[C@H]6O[C@@H]6O[C@@H](C)[C@H](O)[C@@H](O)[C@H]6O)CC[C@]5(C)[C@H]4CC[C@]3(C)[C@H]1[C@@H]2C [OPHIOPOGONIN C]
IC50 (HeLa): 3.7 µM | IC50 (MDA-MB-231): 3.5 µM | IC50 (HepG2): 2.92 µM | IC50 (KB): 4.2 µM | IC50 (HuCC-A1): 5.8 µM
